# According to ChEMBL document CHEMBL1142498 (J Med Chem, 2008):
# Assays:
# [1] = target: T1, 5-hydroxytryptamine receptor 1A (Homo sapiens, UniProt P08908); assay: biochemical
# T1 sequence (P08908 whole entry): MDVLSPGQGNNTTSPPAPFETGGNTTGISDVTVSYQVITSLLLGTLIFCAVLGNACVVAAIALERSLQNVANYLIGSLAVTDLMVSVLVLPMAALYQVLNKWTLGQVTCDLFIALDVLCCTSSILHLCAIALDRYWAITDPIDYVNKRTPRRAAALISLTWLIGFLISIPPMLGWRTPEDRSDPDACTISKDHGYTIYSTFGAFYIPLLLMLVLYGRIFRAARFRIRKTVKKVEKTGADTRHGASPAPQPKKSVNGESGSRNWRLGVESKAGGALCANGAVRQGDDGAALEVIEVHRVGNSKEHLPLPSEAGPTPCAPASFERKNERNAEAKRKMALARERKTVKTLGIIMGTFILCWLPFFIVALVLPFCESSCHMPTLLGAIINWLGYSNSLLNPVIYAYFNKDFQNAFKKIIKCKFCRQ
# [2] = target: T1, 5-hydroxytryptamine receptor 1A
# Description: Activity at human cloned 5HT1A receptor expressed in CHO cells assessed as blockade of 5-HT-stimulated [35S]GTPgammaS binding
# [3] = target: Sodium-dependent serotonin transporter (Homo sapiens, UniProt P31645); assay type: cell-based, JAR
# Description: Inhibition of 5-HT transporter-mediated [3H]5HT uptake in human Jar cells
# [4] = target: Sodium-dependent serotonin transporter (Rattus norvegicus, UniProt P31652)
# Description: Displacement of [3H]paroxetine from serotonin transporter in Sprague-Dawley rat frontal cortical membrane
# [5] = target: T2, 5-hydroxytryptamine receptor 1A (Homo sapiens) (UniProt P08908); assay: Displacement of [3H]8-OH-DPAT from human recombinant 5HT1A receptor expressed in CHO cells at 1uM; assay type: cell-based
# T2 sequence (whole entry): T1 sequence (P08908 whole entry)
# [6] = organism: Rattus norvegicus; assay: Displacement of [3H]prazosin from alpha1 adrenergic receptor in Sprague-Dawley rat cortical membrane at 1 uM
# Sequence of Sodium-dependent serotonin transporter (Rattus norvegicus, UniProt P31652) (P31652 whole entry): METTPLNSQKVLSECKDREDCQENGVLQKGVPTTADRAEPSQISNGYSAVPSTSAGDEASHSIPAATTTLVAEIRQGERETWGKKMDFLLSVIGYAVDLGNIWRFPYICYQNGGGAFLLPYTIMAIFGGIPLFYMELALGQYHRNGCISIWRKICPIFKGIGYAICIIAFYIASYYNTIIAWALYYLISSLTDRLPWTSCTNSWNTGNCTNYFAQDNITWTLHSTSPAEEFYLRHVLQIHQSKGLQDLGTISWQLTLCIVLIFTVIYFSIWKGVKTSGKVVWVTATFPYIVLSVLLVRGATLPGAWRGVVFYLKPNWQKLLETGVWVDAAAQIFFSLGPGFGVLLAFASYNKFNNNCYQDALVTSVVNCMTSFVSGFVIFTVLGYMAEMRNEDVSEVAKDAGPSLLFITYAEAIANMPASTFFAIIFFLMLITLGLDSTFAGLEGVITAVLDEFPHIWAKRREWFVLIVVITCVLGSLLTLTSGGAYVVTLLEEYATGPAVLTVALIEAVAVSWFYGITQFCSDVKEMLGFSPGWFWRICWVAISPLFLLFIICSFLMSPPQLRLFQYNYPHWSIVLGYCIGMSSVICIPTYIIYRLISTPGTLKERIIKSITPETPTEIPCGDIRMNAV
# Sequence of Sodium-dependent serotonin transporter (Homo sapiens, UniProt P31645) (P31645 whole entry): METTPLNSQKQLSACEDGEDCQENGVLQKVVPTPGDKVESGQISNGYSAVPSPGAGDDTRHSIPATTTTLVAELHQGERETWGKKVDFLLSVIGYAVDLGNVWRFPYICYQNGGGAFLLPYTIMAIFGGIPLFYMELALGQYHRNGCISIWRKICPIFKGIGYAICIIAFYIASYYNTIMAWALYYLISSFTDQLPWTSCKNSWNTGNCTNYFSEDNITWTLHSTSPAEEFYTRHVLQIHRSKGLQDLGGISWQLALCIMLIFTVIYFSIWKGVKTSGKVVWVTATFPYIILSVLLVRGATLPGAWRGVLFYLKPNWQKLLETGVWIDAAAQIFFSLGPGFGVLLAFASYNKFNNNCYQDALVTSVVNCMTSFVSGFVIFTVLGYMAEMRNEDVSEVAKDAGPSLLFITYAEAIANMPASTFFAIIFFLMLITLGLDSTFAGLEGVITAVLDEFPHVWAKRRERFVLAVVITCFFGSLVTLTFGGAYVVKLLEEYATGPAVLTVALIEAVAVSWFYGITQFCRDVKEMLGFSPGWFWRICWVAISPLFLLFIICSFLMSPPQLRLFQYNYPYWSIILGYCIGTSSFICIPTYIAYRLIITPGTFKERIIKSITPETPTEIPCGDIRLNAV
IC50 [2] [nM],IC50 [3] [nM],Activity [5] [%],Activity [6] [%],SMILES,Ki [1] [nM],Ki [4] [nM]
1000,10.1,,,"N#Cc1ccc2[nH]cc(CCCN(C3CCC3)C3COc4c(F)ccc(C(N)=O)c4C3)c2c1 (single isomer, unassigned; (+))",258,9.05
> 2000,1030,4,8,O=C(O)c1ccc(F)c2c1CC(N(CCCc1c[nH]c3ccc(F)cc13)C1CCC1)CO2 (configuration not stated),,
,146,,31,CCCN(CCCc1c[nH]c2ccc(F)cc12)[C@H]1COc2cccc(C(N)=O)c2C1,0.93,23.4
195,24.1,,,"N#Cc1ccc2[nH]cc(CCCN(C3CCC3)C3COc4c(F)ccc(C(N)=O)c4C3)c2c1 (single isomer, unassigned; (-))",1.98,2.44

# Continued, molecule first:
SMILES,IC50 [2] [nM],IC50 [3] [nM],Activity [5] [%],Activity [6] [%],Ki [1] [nM],Ki [4] [nM]
"NC(=O)c1ccc(Cl)c2c1CC(N(CCCc1c[nH]c3ccc(F)cc13)C1CCC1)CO2 (single isomer, unassigned; (-))",125,61.4,,,10.9,1.98
CCCN(CCCc1c[nH]c2ccc(F)cc12)C1COc2c(F)ccc(OC)c2C1 (configuration not stated),,442,,,19.4,12.5
CCCN(CCCc1c[nH]c2ccc(F)cc12)[C@H]1COc2c(F)ccc(C(=O)NC)c2C1,752,47,,39,2.64,11.3
O=C(NC1CCCCC1)c1ccc(F)c2c1CC(N(CCCc1c[nH]c3ccc(F)cc13)C1CCC1)CO2 (configuration not stated),> 1000,144,44,21,,
CNC(=O)c1ccc(F)c2c1C[C@@H](N(CCCc1c[nH]c3ccc(F)cc13)C1CCC1)CO2,262,147,,0,1.32,10.2
